Laboratory results published in patent US20220257599A1, “METHODS USEFUL IN TREATING CANCERS HARBORING A KRAS OR HRAS MUTATION OR AMPLIFICATION” (Memorial Sloan Kettering Cancer Center, priority 2019, published 2022).

Key:
iKRas cells [1] = assay: Intracellular endomembrane lipid nanosensor (reporter) assay, near-infrared hyperspectral microscopy; assay type: cell-based, mouse; settings: for attenuation of lipid reporter response (lipid dysregulation) in iKRas cells: 50 nM during the 24 h induction period, order darapladib>rilapladib≈ML256>AA39-2; for lipid nanosensor response in iKRas relative to vector: pathway inhibitors, 500 nM, 24 h treated cultures
Procedure: Hyperspectral Microscopy. For lipid reporter imaging experiments, cells were plated on 35 mm glass bottom dishes (MatTek Corp. P35G-1.5-10-C) so that around 0.5-0.8E6 cells were present on assay day. 24 h prior to assay, cells were briefly rinsed with fresh media and cultured as described. On the day of the assay, test media was removed to a sterile Eppendorf, spun in a mini-fuge to pellet cellular debris, and stored at 37° C. Attached cells were briefly rinsed with Pulse media (serum-free complete medium), then exposed to nano-reporter (0.2 μg/mL in Pulse media) for 30 minutes. After exposure, excess nano-reporter was removed by rinsing in complete medium and the stored test media was re-added to the dish for the 5-h incubation period. Near-infrared hyperspectral microscopy^87 was performed on live attached cells to obtain fluorescence emission maps from endomembrane vesicles.^88 Briefly, a 730 nm continuous wave diode laser was pumped through fibers to a 100× oil objective to excite the fluorescent reporters inside attached cells. Collected emission was stored as a hyperspectral imaging cube of encoded wavelengths rectified between 1100 and 1200 nm. The center wavelength for each pixel in the cube was obtained by fitting a Lorentzian function in MATLAB. The center wavelength of the entire population of pixels in each cube, representing a 100× magnified imaging field, was fit with a Gaussian function in OriginPro 9.0. The resulting fit center wavelength values are reported.
To assess lipid dysregulation in live cells, the lipid nanosensor was introduced into the culture medium of RAS- or vector-transformed cell lines. Near-infrared hyperspectral microscopy was utilized to acquire the fluorescence spectra of the nanosensor spatially within iKRas, iHRas, eKRas, vector control cells, and MEFs harboring mutations in the parallel PI3K pathway. The data were fitted to determine the center wavelength of the nanosensor emission band, which was then mapped back over the brightfield images of the cells and plotted in a histogram. Using this method, the average sensor emission wavelength 24 h and 72 h after oncogenic RAS induction was measured.
Next measured was whether this intracellular reporter response was sensitive to sPLA2-mediated generation of lysophospholipids and related lipid species. Lipid accumulation was measured using the nanosensor 24 h after treating the cells with an array of PLA2 inhibitors.

eKRas cells = assay: Proliferation assay (attached cell number); assay type: cell-based, mouse; settings: critical micelle concentrations, 10 μM of each lipid
Procedure: (§1) Proliferation Assays. To assay proliferation, 6E4 cells/well were plated in 6-well plates (ThermoFisher 140675) with complete medium to generate triplicate wells, per experimental condition, for Day 0 through Day 3/4. 6-8 h after seeding cells, wells were briefly rinsed with fresh medium and then cultured with the appropriately supplemented test medium. The Day 0 plate was counted at this time. Plates were counted at 24-h intervals. Attached and spread MEF's are >95% viable,^84 as confirmed by a lack of trypan blue staining or positive western blot for cleaved caspase 7 or PARP (data not shown). To count attached cells, media was aspirated from each well then rinsed, using manual agitation, twice in room temperature (RT) 1×HBSS (w/o Ca/Mg++). Attached cells were trypsinized with 1 mL TrypLE. An imaging cytometer (Thermo T10796; factory default settings) was loaded with chamber slides (ThermoFisher T10794) containing 24 μL of the trypsinized cell suspension. 18 fields were imaged; the cytometer output was given in cells/mL. […] An upper gating threshold was set at 34 μm to include size-doubling of the measured 17 μm average.
(§2) As sPLA2 enzyme isoforms have been described as both tumor suppressors and tumor promoters,^48, 49, 50, 51, 52, 53 iKRas cells were interrogated using two representative lipids—a group 7 sPLA2 substrate, and a product. First, the vector control cells were incubated with increasing concentrations of 16:0 lysoPC, a group 7 sPLA2 product, and 16:0 methylcarbamyl PAF (cPAF), a substrate. […] Therefore, in the vector control cells, intracellular accumulation of the group 7 sPLA2 product affected proliferation to a greater extent than the enzyme substrate. […] In addition, eKRas cells were much more sensitive to the substrate lipid absent significant RAS-related damage or group 7 activity.

iKRas cells [2] = assay: Proliferation assay (attached cell number); assay type: cell-based, mouse; settings: critical micelle concentrations, 10 μM of each lipid
Procedure: as §1, §2

vector control cells = assay: Proliferation assay (attached cell number); assay type: cell-based, mouse; settings: increasing lipid concentrations spiked into culture medium; lysoPC effect near its CMC, cPAF at sub-critical and critical micelle concentrations
Procedure: as §1, §2

[3] = tested on: phospho-ERK and p21^waf1/cip1; assay: Immunoblot of vector/iKRas cell lysates; assay type: cell-based, mouse; settings: vector and iKRas cells, 24 h exposure to 10 μM lipid
PAF receptor (PAF-R) = assay: Immunoblot for the PAF receptor; assay type: cell-based, mouse; settings: vector cells, 24 h exposure to 10 μM lipid
vector line = assay: Intracellular endomembrane lipid nanosensor (reporter) assay, near-infrared hyperspectral microscopy; settings: 24 h with 100 nM dexamethasone salt
Procedure: For lipid reporter imaging experiments, cells were plated on 35 mm glass bottom dishes (MatTek Corp. P35G-1.5-10-C) so that around 0.5-0.8E6 cells were present on assay day. 24 h prior to assay, cells were briefly rinsed with fresh media and cultured as described. On the day of the assay, test media was removed to a sterile Eppendorf, spun in a mini-fuge to pellet cellular debris, and stored at 37° C. Attached cells were briefly rinsed with Pulse media (serum-free complete medium), then exposed to nano-reporter (0.2 μg/mL in Pulse media) for 30 minutes. After exposure, excess nano-reporter was removed by rinsing in complete medium and the stored test media was re-added to the dish for the 5-h incubation period. Near-infrared hyperspectral microscopy^87 was performed on live attached cells to obtain fluorescence emission maps from endomembrane vesicles.^88 Briefly, a 730 nm continuous wave diode laser was pumped through fibers to a 100× oil objective to excite the fluorescent reporters inside attached cells. Collected emission was stored as a hyperspectral imaging cube of encoded wavelengths rectified between 1100 and 1200 nm. The center wavelength for each pixel in the cube was obtained by fitting a Lorentzian function in MATLAB. […]

[4] = tested on: syngeneic KrasG12D/+; Trp53−/− (KP) transplant model of non-small cell lung cancer; assay: In vivo survival study; set-up: species or system mouse
Procedure: In vivo survival study. To generate the syngeneic KP transplant lung cancer model, a cell line derived from a KrasG12D/+; Trp53−/−(KP) GEMM lung tumor was infected with a retroviral luciferase (Luc)-GFP construct, and 5000 KP tumor cells resuspended in 400 μL of PBS were tail vein injected into 7 week old Female C57BL/6 mice.^90 Mice were randomized into various study cohorts before treatment with vehicle or darapladib. Treatments were administered by oral gavage once per day, Monday through Friday. […] Bioluminescence positive mice remained in the study while bioluminescence negative mice were euthanized, and their lungs were harvested for histology. Tissues were rinsed and fixed in 4° C. buffered 4% paraformaldehyde for 24-48 hours and moved to 4° C. 70% ethanol for long term storage, embedding, sectioning, and staining (H&E, anti-GFP primary antibody, anti-Ki-67 primary antibody). […] Tissues negative for histological dysplasia were excluded from final study analysis; tissues positive for histological dysplasia were kept in the final study analysis. Each cohort's N value was adjusted to reflect histology results before final analysis. […]
The inventors next assessed whether group 7 inhibition would impact the development of a RAS-harboring murine cancer model. […]

[5] = depending on the cell type and downstream marker used; read-out: reported EC50; cited from earlier work
[6] = cited from earlier work
iKRas cells [7] = assay: Lipidomics (LC-MS) after inhibitor treatment; settings: iKRas cells treated with darapladib; especially lysoPC, also lysoPE, lysoPI, lysoPS
Procedure: Lipidomics and Analysis. 100 mm plates were seeded, grown, and induced so that on the day of harvest dishes were 90-100% confluent. Culture medium was Phenol red-free. To harvest conditioned media, the full volume was moved to a glass vial on dry ice/alcohol slurry and a fresh cold PBS volume equal to ¼ of the collected volume was used to rinse the cells; this volume was collected and pooled. To harvest lysate, a separate dish of cells was washed three times with cold HBSS; on the last wash, liquid was aspirated, and the dish was placed onto the dry ice/alcohol slurry to freeze for 30 seconds. 1 mL of a 2:0.8 parts methanol:water mix (chilled to −80° C. and stored on dry ice) was added to the plate. The dish was immediately moved to wet ice and scrapped with a rubber policeman. Lysate was pooled in the bottom of the dish, and then transferred to a glass vial on dry ice until −80° C. storage. The lysate extract vials were briefly flushed with nitrogen gas. […] Quantitation used an MRM method under positive and negative electrospray modes. Raw data was reported as Mol %, or ng/mL of the lipid species normalized to the absolute total lipid abundance (ng/mL) detected by the mass spectrometer. Reported data is Mol % divided by the total adherent cell count from a parallel-treated plate, calculated as a Fold change versus control: (iKRas/Vector)-1.

[8] = tested on: RAS harboring lines (iKRas cells and cell lines derived from lung, pancreas, and colorectal tumors); assay: Cell viability after darapladib treatment (CellTiter-Glo); settings: 48 h incubation
Procedure: (§3) 5,000 cells/well of doxycycline induced iKRas or target mouse/human cells were seeded in 96-well plates 1 day prior to the start of treatment. On the day of the experiment, increasing concentrations of darapladib were added in triplicate to the conditioned media. After incubation for 48 h, the cell viability was assessed using the CellTiter-Glo® luminescent assay (Promega G9681). Prior to use, reconstituted kit reagent was equilibrated to room temperature. To initiate cell lysis, 50 μL of reagent was added to each well. Plates were incubated for 10 minutes at room temperature with gentle mixing on an orbital shaker. Luminescence was measured using a Tecan Infinite M1000 Pro plate reader (Tecan Group Ltd.).

[9] = tested on: RAW 264.7 murine macrophages; assay: as above; settings: 48 h incubation
Procedure: as §3

[10] = tested on: eKRas versus wildtype SV40 MEFs; assay: as above; settings: sigmoidal dose-response
Procedure: as §3

[11] = 20 nM during the 24 h induction period

Cc1c(C)c2c(c(C)c1O)CC[C@@](C)(CCC[C@H](C)CCC[C@H](C)CCCC(C)C)O2 [Vitamin E, α-tocopherol]
reporter response in iKRas cells (iKRas cells [1]; 20 μM ±-α-tocopherol during the 24 h induction period): abrogated

COCCN1CCC(N(Cc2ccc(-c3ccc(C(F)(F)F)cc3)cc2)C(=O)Cn2c(SCc3cccc(F)c3F)cc(=O)c3ccccc32)CC1 [rilapladib]
attenuation of lipid reporter response (lipid dysregulation) in iKRas cells (iKRas cells [1]): attenuated the reporter response

CCCCCCCCCCCCCCCCOCC(COCC(F)(F)F)OP(=O)(O)OC (stereo not drawn) [MJ-33]
attenuation of lipid reporter response in iKRas cells (iKRas cells [1]; [11]): unable to attenuate the lipid reporter response

Cn1nccc1Nc1nccc(-c2ccn([C@H](CO)c3ccc(Cl)c(F)c3)c(=O)c2)n1 [GDC-0994]
lipid nanosensor response in iKRas relative to vector (iKRas cells [1]): significantly diminished

CCCCCCCCCCCCCCCCOC[C@H](COP(=O)([O-])OCC[N+](C)(C)C)OC(=O)NC [cPAF, 16:0 methylcarbamyl PAF]
effect on eKRas cell proliferation (eKRas cells): potent arresting effect | effect on iKRas cell proliferation (iKRas cells [2]): potent arresting effect | vector control cell proliferation (vector control cells): mild stimulatory effect | phospho-ERK and p21^waf1/cip1 expression [3]: increased | PAF-R expression (PAF receptor (PAF-R)): downregulated

N#Cc1c(Oc2ccc(F)c(NC(=O)Cc3cccc(C(F)(F)F)c3)c2)ccc2nc(NC(=O)C3CC3)sc12 [TAK-632]
lipid nanosensor response in iKRas relative to vector (iKRas cells [1]): significantly diminished

O=C1O/C(=C/Br)CCC1c1cccc2ccccc12 (stereo not drawn) [BEL]
attenuation of lipid reporter response in iKRas cells (iKRas cells [1]; 75 nM during the 24 h induction period): unable to attenuate the lipid reporter response

C[C@@H]1C[C@H]2[C@@H]3CCC4=CC(=O)C=C[C@]4(C)[C@@]3(F)[C@@H](O)C[C@]2(C)[C@@]1(O)C(=O)CO [dexamethasone]
reporter response in the vector line (vector line): increased the reporter response

CCCCCCCCCCCCCCCC(=O)OC[C@@H](O)COP(=O)([O-])OCC[N+](C)(C)C [lysoPC, 16:0 lysoPC]
effect on eKRas cell proliferation (eKRas cells): negligible arresting effect or a reduced arresting effect | effect on iKRas cell proliferation (iKRas cells [2]): negligible arresting effect or a reduced arresting effect | vector control cell proliferation (vector control cells): arrested | phospho-ERK and p21^waf1/cip1 expression [3]: not

CC(C)OC(=O)c1ccc(N2C(=O)C(Cl)=C(Cl)C2=O)cc1 [TSI-01]
attenuation of lipid reporter response in iKRas cells (iKRas cells [1]; 1 μM during the 24 h induction period): unable to attenuate the lipid reporter response

CCN(CC)CCN(Cc1ccc(-c2ccc(C(F)(F)F)cc2)cc1)C(=O)Cn1c(SCc2ccc(F)cc2)nc(=O)c2c1CCC2 [darapladib]
attenuation of lipid reporter response (lipid dysregulation) in iKRas cells (iKRas cells [1]): attenuated the reporter response | lung cancer-associated death and morbidity ([4]; 10 mg/kg daily oral gavage starting on Day 1 or Day 6, C57BL/6 mice): significant delay | survival in Kras^G12D/+/p53^−/− lung cancer model in mice ([4]; mouse, in vivo): prolonged survival | EC50 [5]: 10 to 1000 nM | safety in vivo [6]: safe and apparently side-effect-free | cardiovascular clinical endpoint, Phase 3 trials ([6]; in vivo): failing to meet its intended cardiovascular clinical endpoint | lysophospholipid levels (lipidomics) (iKRas cells [7]): significant attenuation | viability of RAS harboring lines [8]: died at low micromolar concentrations | viability of RAW 264.7 control cell line [9]: largely unaffected | potency at killing eKRas versus wildtype cells [10]: twice as potent

O=C(N1CCCC1)n1ncc(-c2ccc(-c3ccccc3)cc2)n1 [AA39-2]
attenuation of lipid reporter response (lipid dysregulation) in iKRas cells (iKRas cells [1]): attenuated the reporter response

CCc1c(C(=O)C(N)=O)c2c(OCC(=O)O)cccc2n1Cc1ccccc1 [varespladib]
attenuation of lipid reporter response in iKRas cells (iKRas cells [1]; [11]): unable to attenuate the lipid reporter response

Cc1cc(N2CCN(C(=O)Oc3ccc(-c4ccccc4)cn3)CC2)c2ccccc2n1 [ML256]
attenuation of lipid reporter response (lipid dysregulation) in iKRas cells (iKRas cells [1]): attenuated the reporter response
